Experimental data reported in US20250051338A1, “TYK2 DEGRADERS AND USES THEREOF” (Kymera Therapeutics, Inc., priority 2021, published 2025).

Legend:
Format in all cases: cell-based
[1] = molecular target: T1, TYK2 (Homo sapiens, UniProt P29597); experiment: TYK2 degradation MSD assay in EBV-B cells; parameters: endogenous in cells; host or cells: EBV-B cells; conditions: 4 to 24 hours incubation, read-out: TYK2 MSD DC50 rating in EBV-B
Summary of the method: (§1)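 DC50 values reflect dose-dependent decrease of TYK2 protein, read by MSD after cells were exposed to compound (top 1 to 10 μM, 1:3, 9 doses) for 4 to 24 hours at 37° C.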

[2] = molecular target: T1, TYK2; experiment: TYK2 degradation MSD assay in human PBMC cells; parameters: endogenous in cells; host or cells: human PBMC; conditions: 4 to 24 hours incubation, read-out: TYK2 MSD DC50 rating in human PBMC
Summary of the method: as §1

[3] = molecular target: T1, TYK2; experiment: TYK2 degradation MSD assay in OCI-LY10 cells; parameters: endogenous in cells; host or cells: EBV-B cells; conditions: 4 to 24 hours incubation, read-out: TYK2 MSD DC50 rating in OCI-LY10
Summary of the method: as §1

T1 sequence (P29597 whole entry): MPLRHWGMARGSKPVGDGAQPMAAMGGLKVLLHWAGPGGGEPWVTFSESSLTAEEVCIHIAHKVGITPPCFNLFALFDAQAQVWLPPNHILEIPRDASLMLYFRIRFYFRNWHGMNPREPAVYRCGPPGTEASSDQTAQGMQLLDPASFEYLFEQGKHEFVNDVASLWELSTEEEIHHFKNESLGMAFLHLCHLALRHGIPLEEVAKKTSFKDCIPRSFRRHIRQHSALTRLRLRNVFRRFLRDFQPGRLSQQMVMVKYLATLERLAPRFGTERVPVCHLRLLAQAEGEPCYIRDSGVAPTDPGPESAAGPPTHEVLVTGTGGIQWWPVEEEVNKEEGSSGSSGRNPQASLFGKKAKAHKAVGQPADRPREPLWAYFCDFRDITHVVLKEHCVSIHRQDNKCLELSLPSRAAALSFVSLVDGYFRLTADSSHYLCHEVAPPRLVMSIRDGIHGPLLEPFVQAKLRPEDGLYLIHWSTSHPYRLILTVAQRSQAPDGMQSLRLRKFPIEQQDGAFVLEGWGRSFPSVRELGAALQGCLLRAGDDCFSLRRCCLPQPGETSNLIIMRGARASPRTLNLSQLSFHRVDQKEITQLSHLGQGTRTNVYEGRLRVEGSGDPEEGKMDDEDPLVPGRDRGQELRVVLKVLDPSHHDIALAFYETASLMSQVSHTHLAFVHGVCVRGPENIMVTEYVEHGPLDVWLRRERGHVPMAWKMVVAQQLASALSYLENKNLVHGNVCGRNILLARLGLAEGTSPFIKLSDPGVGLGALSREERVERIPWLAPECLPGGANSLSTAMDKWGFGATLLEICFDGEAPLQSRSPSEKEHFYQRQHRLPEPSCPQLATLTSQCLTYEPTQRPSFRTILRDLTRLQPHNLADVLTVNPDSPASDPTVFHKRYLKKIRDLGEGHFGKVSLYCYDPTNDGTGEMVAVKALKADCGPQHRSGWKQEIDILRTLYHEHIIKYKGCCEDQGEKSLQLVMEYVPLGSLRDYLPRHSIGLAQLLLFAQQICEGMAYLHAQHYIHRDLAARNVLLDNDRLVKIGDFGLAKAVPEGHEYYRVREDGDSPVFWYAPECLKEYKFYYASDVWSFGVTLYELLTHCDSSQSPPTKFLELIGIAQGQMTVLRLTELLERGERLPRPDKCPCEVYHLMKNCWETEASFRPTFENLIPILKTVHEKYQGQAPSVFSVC

Row | Structure (SMILES) | DC50 [1] [nM] | DC50 [2] [nM] | DC50 [3] [nM]
1 | CNc1cc(Nc2ccccc2C(=O)NCCCCCCc2cccc3c2n(C)c(=O)n3C2CCC(=O)NC2=O)nn2c(C(=O)N[C@@H]3C[C@@H]3F)cnc12 (stereo partly drawn) [Example K257] | > 100 | 1 to 10 | 10 to 100
2 | Cc1cc(C)cc(Nc2cc(NCCCCCCc3ccc4c(c3)n(C)c(=O)n4C3CCC(=O)NC3=O)c3ncc(C(=O)N[C@@H]4C[C@@H]4F)n3n2)c1 (stereo partly drawn) [Example K401] | > 100 | > 100 | > 100
3 | CNc1cc(Nc2cccn(-c3ccc(C(=O)NCCOCCOCCOCCOCCc4ccc5c(c4)n(C)c(=O)n5C4CCC(=O)NC4=O)cn3)c2=O)nn2c(C(=O)N[C@@H]3C[C@@H]3F)cnc12 (stereo partly drawn) [Example K263] | > 100 | 1 to 10 | > 100
4 | CNc1cc(Nc2cccc(N3CCC(CN4CCC(c5ccc(-c6ccc7c(c6)n(C)c(=O)n7C6CCC(=O)NC6=O)cc5)CC4)CC3)c2OC)nn2c(C(=O)N[C@@H]3C[C@@H]3F)cnc12 (stereo partly drawn) [Example K622] | > 100 | > 100 | < 1
5 | CNc1cc(Nc2cccn(-c3ccc(C(=O)N4CCC(N5CCC(N6CCN(c7cccc8c7n(C)c(=O)n8C7CCC(=O)NC7=O)CC6)CC5)CC4)cn3)c2=O)nn2c(C(=O)N[C@@H]3C[C@@H]3F)cnc12 (stereo partly drawn) [Example K462] | > 100 | > 100 | 1 to 10
6 | CNc1cc(N(C)c2cccc(-c3ccc(CN4CCN(c5ccc(-c6ccc7c(c6)n(C)c(=O)n7C6CCC(=O)NC6=O)cc5)CC4)cn3)c2)nn2c(C(=O)N[C@@H]3C[C@@H]3F)cnc12 (stereo partly drawn) [Example K481] | > 100 | > 100 | > 100
7 | CNc1cc(Nc2cccn(-c3ccc(C(=O)NCCOCCOCCc4cccc5c4n(C)c(=O)n5C4CCC(=O)NC4=O)cn3)c2=O)nn2c(C(=O)N[C@@H]3C[C@@H]3F)cnc12 (stereo partly drawn) [Example K216] | > 100 | 1 to 10 | > 100
8 | CNc1cc(Nc2cccc(CN3CCC(OC4CC(c5cccc6c5n(C)c(=O)n6C5CCC(=O)NC5=O)C4)CC3)c2)nn2c(C(=O)NC3CC3)cnc12 (stereo not drawn) [Example K590] | > 100 | > 100 | < 1
9 | CNc1cc(Nc2cccnc2OCC2CCN(C3CCN(c4ccc5c(c4)n(C)c(=O)n5C4CCC(=O)NC4=O)CC3)CC2)nn2c(C(=O)NC3CC3F)cnc12 (stereo not drawn) [Example K659] | > 100 | > 100 | 1 to 10
10 | Cc1cc(C)cc(Nc2cc(NCCCCCCCCc3ccc4c(c3)n(C)c(=O)n4C3CCC(=O)NC3=O)c3ncc(C(=O)N[C@@H]4C[C@@H]4F)n3n2)c1 (stereo partly drawn) [Example K400] | > 100 | > 100 | > 100
11 | CNc1cc(N2CCc3c(-c4ccc(CN5CCN([C@H]6CC[C@H](c7ccc(-c8ccc9c(c8)n(C)c(=O)n9C8CCC(=O)NC8=O)cc7)CC6)CC5)cn4)cccc32)nn2c(C(=O)N[C@@H]3CC3F)cnc12 (stereo partly drawn) [Example K566] | > 100 | > 100 | 1 to 10
12 | CNc1cc(Nc2cccn(-c3ccc(C(=O)N4CCC(N(C)CC5CCN(c6ccc(-c7ccc8c(c7)n(C)c(=O)n8C7CCC(=O)NC7=O)cc6)C5)CC4)cn3)c2=O)nn2c(C(=O)N[C@@H]3C[C@@H]3F)cnc12 (stereo partly drawn) [Example K446] | > 100 | > 100 | < 1
13 | CNC(=O)c1cnc(Nc2ccc(CN3CCCC(c4cccc5c4n(C)c(=O)n5C4CCC(=O)NC4=O)C3)cn2)cc1Nc1cccc(-c2ncc(F)cn2)c1OC (stereo not drawn) [Example K156] | > 100 | > 100 | > 100
14 | [2H]C([2H])([2H])NC(=O)c1nnc(Nc2ccc(CN3CCN(c4ccc5c(c4)n(C)c(=O)n5C4CCC(=O)NC4=O)CC3)cn2)cc1Nc1cccc(F)c1OC (stereo not drawn) [Example K711] | > 100 | > 100 | > 100
15 | CNC(=O)c1cnc(Nc2ccc(CN3CCN(Cc4ccc5c(c4)n(C)c(=O)n5C4CCC(=O)NC4=O)CC3)cn2)cc1Nc1cccc(-c2ncc(F)cn2)c1OC (stereo not drawn) [Example K194] | > 100 | < 1 | > 100
16 | CNC(=O)c1cnc(Nc2ccc(C(=O)NCCOCCOCCOCCOCCc3ccc4c(c3)n(C)c(=O)n4C3CCC(=O)NC3=O)cn2)cc1Nc1cccc(-c2ncc(F)cn2)c1OC (stereo not drawn) [Example K113] | > 100 | 1 to 10 | > 100
17 | CNc1cc(-c2cn(C)c3c(-c4ccc(CN5CCN(c6ccc(-c7ccc8c(c7)n(C)c(=O)n8C7CCC(=O)NC7=O)cc6)CC5)cc4)cccc23)nn2c(C(=O)N[C@@H]3C[C@@H]3F)cnc12 (stereo partly drawn) [Example K532] | > 100 | > 100 | > 100
18 | CNc1cc(Nc2cccc(C#CCN3CCN(c4ccc(-c5ccc6c(c5)n(C)c(=O)n6C5CCC(=O)NC5=O)cc4)CC3)c2OC)nn2c(C(=O)N[C@@H]3C[C@@H]3F)cnc12 (mixture of isomers) [Example K543, 6-({3-[3-(4-{4-[1-(2,6-Dioxopiperidin-3-yl)-3-methyl-2-oxo-1,3-benzodiazol-5-yl]phenyl}piperazin-1-yl)prop-1-yn-1-yl]-2-methoxyphenyl}amino)-N-[(1R,2S)-2-fluorocyclopropyl]-8-(methylamino)imidazo[1,2-b]pyridazine-3-carboxamide] | > 100 | > 100 | < 1
19 | CNc1cc(-c2ccc(-c3ccc(CN4CCC(CN5CCN(c6ccc7c(c6)n(C)c(=O)n7C6CCC(=O)NC6=O)CC5)CC4)cn3)cc2)nn2c(C(=O)N[C@@H]3C[C@@H]3F)cnc12 (stereo partly drawn) [Example K493] | > 100 | > 100 | 1 to 10
20 | CNc1cc(Nc2cccc(CN3CCC(c4ncc(-c5ccc6c(c5)n(C)c(=O)n6C5CCC(=O)NC5=O)cn4)CC3)c2)nn2c(C(=O)NC3CC3)cnc12 (stereo not drawn) [Example K585] | > 100 | > 100 | 1 to 10
21 | CNc1cc(Nc2cccc(-c3ccc(CN4CCN(c5ccc(-c6ccc7c(c6)n(C)c(=O)n7C6CCC(=O)NC6=O)cc5)CC4)cn3)c2OC)nn2ccnc12 (stereo not drawn) [Example K615] | > 100 | > 100 | > 100
22 | CNc1cc(Nc2cccn(-c3cc(C(=O)NCCCCCCCCCCc4cccc5c4n(C)c(=O)n5C4CCC(=O)NC4=O)ccn3)c2=O)nn2c(C(=O)N[C@@H]3C[C@@H]3F)cnc12 (stereo partly drawn) [Example K234] | > 100 | > 100 | > 100
23 | CNc1cc(Nc2cccn(-c3cc(C(=O)NCCCCCCc4cccc5c4n(C)c(=O)n5C4CCC(=O)NC4=O)ccn3)c2=O)nn2c(C(=O)N[C@@H]3C[C@@H]3F)cnc12 (stereo partly drawn) [Example K230] | > 100 | 1 to 10 | > 100
24 | CNc1cc(Nc2cccn(-c3cccc(C(=O)NCCCCCCCCc4ccc5c(c4)n(C)c(=O)n5C4CCC(=O)NC4=O)c3)c2=O)nn2c(C(=O)N[C@@H]3C[C@@H]3F)cnc12 (stereo partly drawn) [Example K223] | > 100 | 1 to 10 | > 100

Second part, the compound after the results:

Row | DC50 [1] [nM] | DC50 [2] [nM] | DC50 [3] [nM] | Structure (SMILES)
25 | > 100 | > 100 | 1 to 10 | CNC(=O)c1cnc2c(NC)cc(Nc3cccc(-c4ccc(CN5CCN(c6ccc(-c7ccc8c(c7)n(C)c(=O)n8C7CCC(=O)NC7=O)cc6)CC5)cn4)c3OC)nn12 (stereo not drawn) [Example K527]
26 | < 1 | < 1 | > 100 | CNC(=O)c1cnc(Nc2ccc(C(=O)NCCCCCCc3cccc4c3n(C)c(=O)n4C3CCC(=O)NC3=O)cn2)cc1Nc1cccc(-c2ncc(F)cn2)c1OC (stereo not drawn) [Example K115]
27 | 1 to 10 | 1 to 10 | > 100 | CNC(=O)c1cnc(Nc2ccc(C(=O)NCCOCCOCCc3ccc4c(c3)n(C)c(=O)n4C3CCC(=O)NC3=O)cn2)cc1Nc1cccc(-c2ncc(F)cn2)c1OC (stereo not drawn) [Example K112]
28 | 1 to 10 | > 100 | > 100 | CNC(=O)c1cnc(Nc2ccc(C3CCN(Cc4cccc5c4n(C)c(=O)n5C4CCC(=O)NC4=O)CC3)cn2)cc1Nc1cccc(-c2ncc(F)cn2)c1OC (stereo not drawn) [Example K174]
29 | < 1 | < 1 | > 100 | CNC(=O)c1cnc(Nc2ccc(CN(C)C3CCN(Cc4cccc5c4n(C)c(=O)n5C4CCC(=O)NC4=O)CC3)cn2)cc1Nc1cccc(-c2ncc(F)cn2)c1OC (stereo not drawn) [Example K137]
30 | 1 to 10 | > 100 | > 100 | CNC(=O)c1cnc(Nc2ccc(C3CN(Cc4ccc5c(c4)n(C)c(=O)n5C4CCC(=O)NC4=O)C3)cn2)cc1Nc1cccc(-c2ncc(F)cn2)c1OC (stereo not drawn) [Example K707]
31 | 10 to 100 | > 100 | > 100 | CNc1cc(Nc2cccn(-c3ccc(C(=O)N4CCC45CN(c4ncc(C#Cc6ccc7c(c6)n(C)c(=O)n7C6CCC(=O)NC6=O)cn4)C5)cn3)c2=O)nn2c(C(=O)N[C@@H]3C[C@@H]3F)cnc12 (stereo partly drawn) [Example K376]
32 | < 1 | > 100 | > 100 | CNc1cc(Nc2cccn(C3CCN(C(=O)N(C)CC4CCN(c5ccc6c(c5)n(C)c(=O)n6C5CCC(=O)NC5=O)CC4)CC3)c2=O)nn2c(C(=O)N[C@@H]3C[C@@H]3F)cnc12 (stereo partly drawn) [Example K398]
33 | 10 to 100 | > 100 | > 100 | CNc1cc(Nc2cccc(-c3ccc(CN4CCN(c5cccc6c(N7CCC(=O)NC7=O)cncc56)CC4)cn3)c2)nn2c(C(=O)N[C@@H]3C[C@@H]3F)cnc12 [Example K467]
34 | 1 to 10 | > 100 | 1 to 10 | Cn1c(=O)n(C2CCC(=O)NC2=O)c2ccc(-c3ccc(N4CCN(Cc5ccc(-c6cccc(Nc7cc(NC8CC8)n8ncc(C(=O)N[C@@H]9C[C@@H]9F)c8n7)c6)nc5)CC4)cc3)cc21 (stereo partly drawn) [Example K509]
